#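 Exposure lasted 48 hours, with cells grown in 96-well plates and compounds tested at five concentrations. GI50 = concentration required for 50% inhibition of growth.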 Calls of active or inactive are those of the source. Rule as the data show it: active = GI50 up to about 1.1 µM and inactive = higher.
# Experiments:
# Assay in all cases: NCI tumour cell line growth inhibition, 48 h
# 786-0 = test system: 786-0
# ACHN = test system: ACHN
# CAKI-1 = test system: CAKI-1
# COLO 205 = test system: COLO 205
# HCT-116 = test system: HCT-116
# HL-60 = test system: HL-60
# HOP-62 = test system: HOP-62
# M14 = test system: M14
# MDA-MB-435 = test system: MDA-MB-435
# NCI-H460 = test system: NCI-H460
# NCI-H522 = test system: NCI-H522
# OVCAR-5 = test system: OVCAR-5
# PC-3 = test system: PC-3
# SK-MEL-28 = test system: SK-MEL-28
# SK-MEL-2 = test system: SK-MEL-2
# SK-OV-3 = test system: SK-OV-3
# SW-620 = test system: SW-620
# TK-10 = test system: TK-10
# HOP-92 = test system: HOP-92
SMILES,GI50 (786-0),GI50 (ACHN),GI50 (CAKI-1),GI50 (COLO 205),GI50 (HCT-116),GI50 (HL-60),GI50 (HOP-62),GI50 (M14),GI50 (MDA-MB-435),GI50 (NCI-H460),GI50 (NCI-H522),GI50 (OVCAR-5),GI50 (PC-3),GI50 (SK-MEL-28),GI50 (SK-MEL-2),GI50 (SK-OV-3),GI50 (SW-620),GI50 (TK-10),GI50 (HOP-92)
CN1CCC(OC(=O)Oc2ccccc2)(c2ccccc2)CC1,> 100 µM (inactive),34.9 µM (inactive),77.3 µM (inactive),12.5 µM (inactive),13 µM (inactive),16.5 µM (inactive),15.5 µM (inactive),15 µM (inactive),17.3 µM (inactive),13.5 µM (inactive),24 µM (inactive),25.4 µM (inactive),18 µM (inactive),20.6 µM (inactive),17.9 µM (inactive),24.9 µM (inactive),25.7 µM (inactive),19.1 µM (inactive),–
O=C(C1OC1c1ccc(Br)cc1O)C12CC3CC(CC(C3)C1)C2 (configuration not stated),17.6 µM (inactive),33.9 µM (inactive),–,–,14.9 µM (inactive),16.9 µM (inactive),26.2 µM (inactive),18.1 µM (inactive),13.8 µM (inactive),27.6 µM (inactive),18.8 µM (inactive),41.5 µM (inactive),23.6 µM (inactive),19.4 µM (inactive),–,–,18.7 µM (inactive),33.9 µM (inactive),17.7 µM (inactive)
CCOP(=O)(OCC)OC1CC(n2cc(C)c(=O)n(C)c2=O)OC1CO[Si](C)(C)C(C)(C)C (configuration not stated),> 100 µM (inactive),> 100 µM (inactive),> 100 µM (inactive),> 100 µM (inactive),40.8 µM (inactive),18.1 µM (inactive),79.6 µM (inactive),> 100 µM (inactive),> 100 µM (inactive),58.3 µM (inactive),32.1 µM (inactive),> 100 µM (inactive),29.1 µM (inactive),> 100 µM (inactive),> 100 µM (inactive),> 100 µM (inactive),> 100 µM (inactive),> 100 µM (inactive),–
COc1ccc(-n2cnc3c(NCC(=O)O)ncnc32)cc1,> 100 µM (inactive),> 100 µM (inactive),> 100 µM (inactive),> 100 µM (inactive),> 100 µM (inactive),–,> 100 µM (inactive),> 100 µM (inactive),> 100 µM (inactive),> 100 µM (inactive),> 100 µM (inactive),> 100 µM (inactive),> 100 µM (inactive),> 100 µM (inactive),> 100 µM (inactive),> 100 µM (inactive),> 100 µM (inactive),> 100 µM (inactive),> 100 µM (inactive)
O=C(N/N=C1\C(=O)Nc2c(Cl)cc(Cl)cc21)C(=O)Nc1cccc(C(F)(F)F)c1,> 100 µM (inactive),> 100 µM (inactive),> 100 µM (inactive),> 100 µM (inactive),> 100 µM (inactive),62.8 µM (inactive),> 100 µM (inactive),> 100 µM (inactive),45.5 µM (inactive),> 100 µM (inactive),–,> 100 µM (inactive),> 100 µM (inactive),> 100 µM (inactive),> 100 µM (inactive),> 100 µM (inactive),> 100 µM (inactive),> 100 µM (inactive),> 100 µM (inactive)
CC#C[C@]1(O)CCC2[C@@H]3CCC4=CC(=O)CCC4=C3[C@@H](c3ccc(N(C)C)cc3)C[C@@]21C (some centres not stated),15.2 µM (inactive),18.7 µM (inactive),5.73 µM (inactive),11.5 µM (inactive),15 µM (inactive),16 µM (inactive),20 µM (inactive),13.8 µM (inactive),12.2 µM (inactive),9.86 µM (inactive),–,22.7 µM (inactive),21.7 µM (inactive),14.4 µM (inactive),–,18.3 µM (inactive),13.3 µM (inactive),11.9 µM (inactive),1.43 µM (inactive)
CCOC(=O)/C=C(\C(=O)OCC)n1ccc(=O)n(Cc2cnnn2COCCOC(C)=O)c1=O,3.73 µM (inactive),3.79 µM (inactive),2.97 µM (inactive),1.77 µM (inactive),9.25 µM (inactive),0.598 µM (active),18.9 µM (inactive),15.1 µM (inactive),8.59 µM (inactive),14.2 µM (inactive),1.61 µM (inactive),15.6 µM (inactive),14.3 µM (inactive),10 µM (inactive),18.4 µM (inactive),53.7 µM (inactive),2.16 µM (inactive),5.64 µM (inactive),–
CC1(C)C/N=C/C(C)(OCc2ccccc2)C(=O)NC(C)(C)C/N=C/C(C)(OCc2ccccc2)C(=O)N1 (configuration not stated),> 10 µM (inactive),> 10 µM (inactive),–,–,> 10 µM (inactive),> 10 µM (inactive),> 10 µM (inactive),> 10 µM (inactive),> 10 µM (inactive),> 10 µM (inactive),–,> 10 µM (inactive),> 10 µM (inactive),> 10 µM (inactive),> 10 µM (inactive),> 10 µM (inactive),> 10 µM (inactive),> 10 µM (inactive),0.0569 µM (active)
COc1ccc2c(c1)/C(=C\c1c(C)nc3n1CCS3)C(=O)N2,35.2 µM (inactive),40.5 µM (inactive),33.4 µM (inactive),9.42 µM (inactive),19.2 µM (inactive),15.6 µM (inactive),32.3 µM (inactive),23 µM (inactive),3.12 µM (inactive),20 µM (inactive),–,42.3 µM (inactive),16.3 µM (inactive),46.8 µM (inactive),29 µM (inactive),19.7 µM (inactive),9.79 µM (inactive),35.8 µM (inactive),34.4 µM (inactive)
C=CCN(c1cc(OC)c2[nH]cc(C)c2c1[N+](=O)[O-])S(C)(=O)=O,> 100 µM (inactive),> 100 µM (inactive),2.55 µM (inactive),> 100 µM (inactive),> 100 µM (inactive),> 100 µM (inactive),> 100 µM (inactive),> 100 µM (inactive),> 100 µM (inactive),> 100 µM (inactive),> 100 µM (inactive),> 100 µM (inactive),> 100 µM (inactive),> 100 µM (inactive),> 100 µM (inactive),> 100 µM (inactive),> 100 µM (inactive),> 100 µM (inactive),–
NC(=O)c1nnn(-c2ccccc2)c1O,> 100 µM (inactive),> 100 µM (inactive),> 100 µM (inactive),> 100 µM (inactive),> 100 µM (inactive),0.1 µM (active),> 100 µM (inactive),> 100 µM (inactive),> 100 µM (inactive),> 100 µM (inactive),> 100 µM (inactive),> 100 µM (inactive),> 100 µM (inactive),> 100 µM (inactive),> 100 µM (inactive),> 100 µM (inactive),> 100 µM (inactive),> 100 µM (inactive),–
